The test system of series [1] is IFN-γ secretion from TIB-71 macrophages. Kind of series: IFN-γ secretion by ELISA. The class given is cell-based, mouse. On the procedure:
Within the scope of the ELISA study, the effect of varying concentrations of the peptides we synthesized on the mouse macrophage cell line was examined. In this study, a cell line that was not treated with AMPs and LPS, a cell line treated only with AMPs, a cell line treated only with LPS, and a cell line treated with both LPS and AMPs were used. To find the changing TNF-α ratio after incubation, the kit named Mouse Tumor Necrosis Factor α ELISA Kit-RAB0477 (Sigma-Aldrich) was applied according to the protocol. Graphpad Prism (9.0.0) was utilized for performing a one-way ANOVA test (α = 0.05) for the statistical analysis. Similarly, ELISA was applied to measure the change in IFN-γ levels in response to the peptides and LPS. In this experiment, the Mouse IFN-γ ELISA Kit-E-EL-[…] was applied according to the specified kit protocol, and the results were evaluated.
For orientation: In an ELISA, binding on a coated surface is turned into a signal by an enzyme label.

The subject of series [2] is IL-6 expression in TIB-71 macrophages. As to the kind of experiment: IL-6 expression by western blotting. Format: cell-based, mouse. The settings on record: for IL-6 expression: peptide alone, normalized to β-actin, versus unstimulated cells, repeated twice. Here is the method:
Protein was extracted from TIB-71 cells for use in western blotting. For this purpose, the supernatant of the cells grown in the appropriate environment was separated for ELISA, whereas protein was extracted from the cellular pellets. Protein obtained using the Protein Extraction Kit (Abcam, Cambridge, UK) was prepared for western blotting. The concentrations of protein samples were determined using the Pierce BCA protein assay kit (Thermo Fisher Scientific). The results were analyzed by reading them on a 96-well plate reader at 565 nm. IL-6 was separated by 12% (w/v) SDS-PAGE and transferred onto a PVDF membrane using the wet transfer technique to compare the expression levels of the markers. Proteins were measured using horseradish peroxidase (HRP)-based clarity western ECL substrate and read using ChemiDoc devices. The area of the bands obtained in the western blotting results was computed using Image Lab software. Specifically, the volume occupied by the bands on the membrane was determined, and the band volume of IL-6 was normalized to that of β-actin to assess protein expression in a semiquantitative manner. Microsoft Excel was used for the semiquantitative analysis. IL-6 secretion by mouse macrophages in response to AMP exposure was examined by GraphPad Prism 9.0.0 one-way ANOVA test (GraphPad, La Jolla, CA, USA).
A general note: A western blot detects proteins with antibodies after separation by electrophoresis.

Series [3] has as its system TIB-71 RAW 264.7 macrophages. As to the kind of experiment: MTT cytotoxicity assay. The settings on record: for cytotoxicity (MTT), broad screening / cytotoxicity (MTT) / concentration from which NET1 and NET2 displayed similar cytotoxicity: LPS-free; for cytotoxicity (MTT), broad screening: peptide 0.125-64 µg/mL; for cytotoxicity (MTT), broad screening / cytotoxicity (MTT): triplicates; for cytotoxicity (MTT): peptide concentrations up to 4 μg/mL; for concentration from which NET1 and NET2 displayed similar cytotoxicity: screening 64 to 0.125 µg/mL; for increase of toxicity compared to that in the absence of LPS: with LPS (1, 10, 100 ng/mL) versus without LPS. Format: cell-based, Mus musculus. Here is the method:
The TIB-71 RAW 264.7 macrophage line, which was obtained from Mus musculus, was used in this study, and this cell line was supplied by ATCC (Manassas, VA, USA). The MTT Cell Proliferation Kit (Sigma–Aldrich, St. Louis, MO, USA), a colorimetric method, was used to evaluate the damage caused by the peptides in eukaryotic cells. TIB-71 RAW 264.7 macrophages were revived under appropriate culture conditions (37°C, 5% CO2) to prepare for the experiment. The final concentration of peptides ranged 0.125–64 μg/mL. Samples were examined in triplicates for each concentration. Cells incubated without peptide treatment under the same conditions were used as the control. Magainin 2 (Mag2), a known natural AMP with no cytotoxic effects, was used as a positive control. The results were obtained using a 96-well plate reader at 550 and 690 nm.
(Formazan colour is commonly taken as a measure of viable cells.)

In series [4] the test system is TNF-α secretion from TIB-71 macrophages. Kind of series: TNF-α secretion by ELISA. The class given is cell-based, mouse. As to conditions: for TNF-α response: peptide together with LPS (50 ng/mL), NET1 versus peptide only, NET2 at 2 or 4 µg/mL. On the procedure:
Within the scope of the ELISA study, the effect of varying concentrations of the peptides we synthesized on the mouse macrophage cell line was examined.
In this study, a cell line that was not treated with AMPs and LPS, a cell line treated only with AMPs, a cell line treated only with LPS, and a cell line treated with both LPS and AMPs were used. To find the changing TNF-α ratio after incubation, the kit named Mouse Tumor Necrosis Factor α ELISA Kit-RAB0477 (Sigma–Aldrich) was applied according to the protocol. Graphpad Prism (9.0.0) was utilized for performing a one-way ANOVA test (α = 0.05) for the statistical analysis.

[5] abbreviates: peptide together with LPS (50 ng/mL).
Where [6] appears, read: peptide 0.5 µg/mL, response to decreasing LPS concentrations (1, 10, 100 ng/mL).
Where [7] appears, read: peptide 2 µg/mL, LPS 1, 10, 100 ng/mL.
The mark [8] stands for this setting: peptide 4 µg/mL, LPS 1, 10, 100 ng/mL.

This is an account of results in publication PMC11698612, “Roles of NET Peptides With Known Antimicrobial Activity and Toxicity in Immune Response” (Journal of Immunology Research, 2024).

“Also recorded” adds a separate entry of the source.

With “RLLLRLLRRLLRLLLR-NH2 [NET1, designed LL-37-like 16-amino acid antimicrobial peptide, …-NH2]”, in series [1] (setting [5]), the IFN-γ secretion result is listed as “decrease IFN-γ expression”. In series [2] (NET1 at the lowest concentration of 2 µg/mL), the “IL-6 expression compared with the other groups” value is given as “threefold lower”. Further, the IL-6 expression entry in series [2] (no LPS) is recorded as “decreased”. In addition, in series [3], the “cytotoxicity (MTT), broad screening” value is recorded as “low cytotoxicity”. The “cytotoxicity (MTT)” value in series [3] is “did not cause significant cytotoxicity”. Besides, the “concentration from which NET1 and NET2 displayed similar cytotoxicity” value in series [3] worked out at 4000 ng/mL. Also, the “cytotoxicity in the presence of LPS” value is “decreased NET1 cytotoxicity” in series [3] (setting [6]); “lower cytotoxicity” in series [3] (peptide 1 µg/mL, LPS 1, 10, 100 ng/mL); “lower cytotoxicity than NET2” in series [3] (setting [7]); “lowest toxicity” in series [3] (setting [8]). Further, in series [3] (peptide 4 µg/mL), the “increase of toxicity compared to that in the absence of LPS” value is “threefold”. Also, the TNF-α response entry in series [4] is recorded as “did not differ”.
“RLLLRLLRRLLRLLLR-NH2 [NET2, designed LL-37-like 16-amino acid antimicrobial peptide, …-NH2]”: the IFN-γ secretion entry in series [1] (peptide alone, LPS-free medium, three concentrations, versus control, one-way ANOVA) is given as “lower IFN-γ expression than NET1; also recorded: significantly increased”; in series [1] (setting [5]) it was “significantly increased”. Further, the “IL-6 expression lower than that in NET1-treated cells” value in series [2] (NET2 used alone, no LPS) was 50%. Besides, the “IL-6 expression in cells treated with LPS” value in series [2] (peptide 8 µg/mL with LPS) was “anti-inflammatory effect”. In addition, the “IL-6 expression in combination with LPS” value in series [2] (peptide 2 and 4 µg/mL with LPS, versus the other groups) is listed as “significantly increased”. Besides, in series [2] (no LPS), the IL-6 expression entry is on record as “reduced IL-6 expression”. Further, the “cytotoxicity (MTT), broad screening” value in series [3] is listed as “low cytotoxicity; also recorded: lower toxicity than the other peptides”. In series [3], the “cytotoxicity (MTT)” value is reported as “did not cause significant cytotoxicity”. Besides, the “concentration from which NET1 and NET2 displayed similar cytotoxicity” value in series [3] worked out at 4000 ng/mL. For the same substance, the “cytotoxicity in the presence of LPS” value in series [3] (setting [6]) was “increased cytotoxicity”; in series [3] (setting [7]), “increased with as the LPS concentration decreased”; in series [3] (setting [8]), “increased as the LPS concentration decreased”. For the same substance, the “increase of toxicity compared to that in the absence of LPS” value in series [3] (peptide 4 µg/mL) is reported as “tenfold”. The TNF-α secretion entry in series [4] (peptide alone, LPS-free medium) is given as “decreased with decreasing peptide concentrations”. In addition, the TNF-α response entry in series [4] was “increased significantly”.
